# Reference: US20110065687A1, “HYDRAZIDE COMPOUNDS AND USES THEREOF” (priority 2007, published 2011)
# What was measured:
# Assay type in all cases: cell-based
# [1] = system: rRNA synthesis from 45S rDNA; test: QPCR assay of rRNA synthesis; conditions: IC50 pertaining to rRNA synthesis, PCR with 5' ETS probe
# Experimental: A representative assay for determining whether a compound modulates rRNA production is set forth hereafter. Assays were conducted to determine the effects of compounds on rRNA synthesis from 45S rDNA. Synthesized rRNA was quantified by a polymerase chain reaction (PCR) assay. A primer/probe set was designed using Primer Express software and synthesized by Applied Biosystems. The 5′ ETS Probe utilized had the following sequence (at its 3′ end): 6FAM-TTG ATC CTG CCA GTA GC-MGBNFQ. The primer sequences were as follows:
# (§1) Step 1. Reverse transcription of RNA to DNA
# (§2) Fluorescence of digested label was detected and quantified. The effect of the compounds on rRNA synthesis were assessed in the assay, and provided in the table hereafter are IC50 values of selected compounds pertaining to rRNA synthesis and cMYC RNA synthesis.
# [2] = system: HCT-116 human colorectal carcinoma cells; test: Alamar Blue cell proliferation assay, HCT-116; conditions: 96 h, anti-proliferative effect, about four days with compound, HCT-116 cells, read-out: AB: HCT-116
# Experimental: (§3) A representative cell-proliferation assay protocol using Alamar Blue dye (stored at 4° C., use 20 ul per well) is described hereafter.
# (§4) a. Split and trypsinize cells.
# (§5) b. Count cells using hemocytometer.
# (§6) c. Plate 4,000-5,000 cells per well in 100 μl of medium and seed into a 96-well plate according to the following plate layout. Add cell culture medium only to wells B10 to B12. Wells B1 to B9 have cells but no compound added.
# (§7) d. Add 100 μl of 2× drug dilution to each well in a concentration shown in the plate layout above. At the same time, add 100 μl of media into the control wells (wells B10 to B12). Total volume is 200 μl /well.
# (§8) e. Incubate four (4) days at 37° C., 5% CO2 in a humidified incubator.
# (§9) f. Add 20 μl Alamar Blue reagent to each well.
# (§10) g. Incubate for four (4) hours at 37° C., 5% CO2 in a humidified incubator.
# (§11) h. Record fluorescence at an excitation wavelength of 544 nm and emission wavelength of 590 nm using a microplate reader.
# (§12) In the assays, cells are cultured with a test compound for approximately four days, the dye then is added to the cells and fluorescence of […] dye is detected after approximately four hours. Different types of cells can be utilized in the assays (e.g., HCT-116 human colorectal carcinoma cells, PC-3 human prostatic cancer cells and MiaPaca human pancreatic carcinoma cells). Anti-proliferative effects of representative compounds are provided in the Table below (i.e., “AB: HCT-116” and “AB: MiaPaCa” columns).
# [3] = system: C-myc transcription (cMYC RNA synthesis); test: QPCR control assay of C-myc transcription; conditions: IC50 pertaining to cMYC RNA synthesis
# Experimental: A control assay that detected effects of the compounds on C-myc transcription also was conducted using a primer/probe set purchased from ABI (TaqMan Gene Expression Assay with assay ID: Hs99999003_m1). The following assay protocol was utilized:
# as §1, §2
# [4] = system: MiaPaca human pancreatic carcinoma cells; test: Alamar Blue cell proliferation assay, MiaPaCa; conditions: MIA PaCa-2, 96 h, anti-proliferative effect, about four days with compound, read-out: AB: MiaPaCa
# Experimental: as §3, §4, §5, §6, §7, §8, §9, §10, §11, §12
IC50 [1] [nM],IC50 [2] [nM],IC50 [3] [nM],IC50 [4] [nM],Compound
148,96,1190,–,CN1CCN(NC(=O)c2c(=O)c3ccc(N4CCOCC4)nc3n3c2sc2ccccc23)CC1 [Cmpd 1]
458,≥ 50000,23600,≥ 50000,O=C(NN1CCCCC1)c1c(=O)c2ccc(N3CCOCC3)nc2n2c1sc1ccccc12 [Cmpd 8]
632,1750,–,486,CN1CCN(NC(=O)c2c(=O)c3cc(F)c(NN4CCN(C)CC4)nc3n3c2sc2ccccc23)CC1 [Cmpd 5]
–,1640,–,–,CN(C)NC(=O)c1c(=O)c2ccc(N3CCOCC3)nc2n2c1[nH]c1ccccc12 [Cmpd 23]
38,1,1100,3,O=C(NNC1=NCCN1)c1c(=O)c2cc(F)c(N3CCOCC3)nc2n2c1sc1ccccc12 [Cmpd 17]
1290,985,–,893,COc1ccc(CNc2ccc3c(=O)c(C(=O)NN4CCN(C)CC4)c4sc5ccccc5n4c3n2)cc1 [Cmpd 18]
9710,7140,–,≥ 50000,CN1CCN(NC(=O)c2c(=O)c3ccc(-c4ccc(CO)cc4)nc3n3c2sc2ccccc23)CC1 [Cmpd 20]
414,523,8990,444,CN(C)NC(=O)c1c(=O)c2ccc(N3CCOCC3)nc2n2c1sc1ccccc12 [Cmpd 10]
2240,690,–,8090,O=C(NN1CCOCC1)c1c(=O)c2cc(F)c(N3CCOCC3)nc2n2c1sc1ccccc12 [Cmpd 14]
–,1410,–,2190,CN(C)NC(=O)c1c(=O)c2cc(F)c(N3CCOCC3)nc2n2c3ccccc3n(C)c12 [Cmpd 22]
5550,1310,–,5360,O=C(NNc1ccccn1)c1c(=O)c2cc(F)c(N3CCOCC3)nc2n2c1sc1ccccc12 [Cmpd 15]
702,562,–,549,O=C(NN1CCOCC1)c1c(=O)c2ccc(N3CCOCC3)nc2n2c1sc1ccccc12 [Cmpd 6]
714,653,–,955,O=C(NN1CCCC1)c1c(=O)c2ccc(N3CCOCC3)nc2n2c1sc1ccccc12 [Cmpd 7]
1580,693,–,1030,CN1CCN(NC(=O)c2c(=O)c3ccc(NCCF)nc3n3c2sc2ccccc23)CC1 [Cmpd 12]
102,265,6060,225,CN1CCN(NC(=O)c2c(=O)c3cc(F)c(N4CCOCC4)nc3n3c2sc2ccccc23)CC1 [Cmpd 3]
696,249,–,1480,CN1CCN(NC(=O)c2c(=O)c3ccc(N(C)Cc4cnccn4)nc3n3c2sc2ccccc23)CC1 [Cmpd 2]
350,292,14000,715,O=C(Nn1cnnc1)c1c(=O)c2cc(F)c(N3CCOCC3)nc2n2c1sc1ccccc12 [Cmpd 16]
720,1170,–,596,COC[C@H]1CCCN1NC(=O)c1c(=O)c2ccc(N3CCOCC3)nc2n2c1sc1ccccc12 [Cmpd 9]
–,662,–,1300,Cn1c2ccccc2n2c3nc(N4CCOCC4)c(F)cc3c(=O)c(C(=O)NN3CCOCC3)c12 [Cmpd 21]
3140,915,–,740,CN1CCN(NC(=O)c2c(=O)c3ccc(N4CCCCC4)nc3n3c2sc2ccccc23)CC1 [Cmpd 11]
–,1420,–,–,CN1CCN(NC(=O)c2c(=O)c3ccc(N4CCOCC4)nc3n3c2[nH]c2ccccc23)CC1 [Cmpd 24]
7320,5880,–,3310,CN1CCN(NC(=O)c2c(=O)c3ccc(N4CCC(O)C4)nc3n3c2sc2ccccc23)CC1 (stereo not drawn) [Cmpd 13]
291,517,7010,173,CN1CCN(NC(=O)c2c(=O)c3cc(F)c(N(C)Cc4cnccn4)nc3n3c2sc2ccccc23)CC1 [Cmpd 4]
